# Values quoted from earlier work, collected in PubChem BioAssay AID1259409 (Chemical Carcinogenesis Research Information System (CCRIS), 2018).
# Tested on: rodent chemically induced tumor inhibition, incidence and multiplicity
# Assay: CCRIS tumor inhibitor studies
# Conditions: Route [Inhibitor]: ORAL
smiles,measurement,setting,value
Cc1c(-c2cnccn2)ssc1=S,"tumour outcome (control, treated, inhibition, significance)","Carcinogen: NITROSOBIS(2-OXOPROPYL)AMINE [60599-38-4], Dose [Inhibitor]: 200 PPM IN DIET FOR 4 WK BEGINNING 1 WK PRIOR TO FIRST CARCINOGEN DOSE (STUDY DURATION: 52 WK), Species: HAMSTER, Strain/Sex: SYRIAN/FEMALE, Target Tissue: Type of Lesion: LIVER: HEPATOCELLULAR ADENOMA, Dose [Carcinogen]: 10 MG/KG BW 1X/WK FOR 3 WK (STUDY DURATION: 52 WK)","16.7%, 20.7%, -24%, not significant"
same,"tumour outcome (control, treated, inhibition, significance)","Carcinogen: NITROSOBIS(2-OXOPROPYL)AMINE [60599-38-4], Dose [Inhibitor]: 200 PPM IN DIET FOR 4 WK BEGINNING 1 WK PRIOR TO FIRST CARCINOGEN DOSE (STUDY DURATION: 52 WK), Species: HAMSTER, Strain/Sex: SYRIAN/FEMALE, Target Tissue: Type of Lesion: LIVER: HEPATOCELLULAR CARCINOMA, Dose [Carcinogen]: 10 MG/KG BW 1X/WK FOR 3 WK (STUDY DURATION: 52 WK)","6.7%, 6.9%, -3%, not significant"
same,"tumour outcome (control, treated, inhibition, significance)","Carcinogen: NITROSOBIS(2-OXOPROPYL)AMINE [60599-38-4], Dose [Inhibitor]: 200 PPM IN DIET FOR 4 WK BEGINNING 1 WK PRIOR TO FIRST CARCINOGEN DOSE (STUDY DURATION: 52 WK), Species: HAMSTER, Strain/Sex: SYRIAN/FEMALE, Target Tissue: Type of Lesion: LUNG: ADENOCARCINOMA, Dose [Carcinogen]: 10 MG/KG BW 1X/WK FOR 3 WK (STUDY DURATION: 52 WK)","46.7%, 37.9%, 19%, not significant"
same,"tumour outcome (control, treated, inhibition, significance)","Carcinogen: NITROSOBIS(2-OXOPROPYL)AMINE [60599-38-4], Dose [Inhibitor]: 200 PPM IN DIET FOR 4 WK BEGINNING 1 WK PRIOR TO FIRST CARCINOGEN DOSE (STUDY DURATION: 52 WK), Species: HAMSTER, Strain/Sex: SYRIAN/FEMALE, Target Tissue: Type of Lesion: LUNG: ADENOMA, Dose [Carcinogen]: 10 MG/KG BW 1X/WK FOR 3 WK (STUDY DURATION: 52 WK)","86.7%, 75.9%, 12%, not significant"
same,"tumour outcome (control, treated, inhibition, significance)","Carcinogen: NITROSOBIS(2-OXOPROPYL)AMINE [60599-38-4], Dose [Inhibitor]: 200 PPM IN DIET FOR 4 WK BEGINNING 1 WK PRIOR TO FIRST CARCINOGEN DOSE (STUDY DURATION: 52 WK), Species: HAMSTER, Strain/Sex: SYRIAN/FEMALE, Target Tissue: Type of Lesion: PANCREAS: ADENOCARCINOMA, Dose [Carcinogen]: 10 MG/KG BW 1X/WK FOR 3 WK (STUDY DURATION: 52 WK)","13/30 (43.3%), 20/29 (68.9%), -59%, not significant"
same,"tumour outcome (control, treated, inhibition, significance)","Carcinogen: NITROSOBIS(2-OXOPROPYL)AMINE [60599-38-4], Dose [Inhibitor]: 400 PPM IN DIET FOR 4 WK BEGINNING 1 WK PRIOR TO FIRST CARCINOGEN DOSE (STUDY DURATION: 52 WK), Species: HAMSTER, Strain/Sex: SYRIAN/FEMALE, Target Tissue: Type of Lesion: GALL BLADDER: ADENOMA, Dose [Carcinogen]: 10 MG/KG BW 1X/WK FOR 3 WK (STUDY DURATION: 52 WK)","13.3%, 21.1%, -59%, not significant"
same,"tumour outcome (control, treated, inhibition, significance)","Carcinogen: NITROSOBIS(2-OXOPROPYL)AMINE [60599-38-4], Dose [Inhibitor]: 400 PPM IN DIET FOR 4 WK BEGINNING 1 WK PRIOR TO FIRST CARCINOGEN DOSE (STUDY DURATION: 52 WK), Species: HAMSTER, Strain/Sex: SYRIAN/FEMALE, Target Tissue: Type of Lesion: KIDNEY: RENAL CELL ADENOMA, Dose [Carcinogen]: 10 MG/KG BW 1X/WK FOR 3 WK (STUDY DURATION: 52 WK)","3.3%, 3.4%, -3%, not significant"
same,"tumour outcome (control, treated, inhibition, significance)","Carcinogen: NITROSOBIS(2-OXOPROPYL)AMINE [60599-38-4], Dose [Inhibitor]: 400 PPM IN DIET FOR 4 WK BEGINNING 1 WK PRIOR TO FIRST CARCINOGEN DOSE (STUDY DURATION: 52 WK), Species: HAMSTER, Strain/Sex: SYRIAN/FEMALE, Target Tissue: Type of Lesion: KIDNEY: RENAL CELL CARCINOMA, Dose [Carcinogen]: 10 MG/KG BW 1X/WK FOR 3 WK (STUDY DURATION: 52 WK)","6.7%, 10.3%, -54%, not significant"
same,"tumour outcome (control, treated, inhibition, significance)","Carcinogen: NITROSOBIS(2-OXOPROPYL)AMINE [60599-38-4], Dose [Inhibitor]: 400 PPM IN DIET FOR 4 WK BEGINNING 1 WK PRIOR TO FIRST CARCINOGEN DOSE (STUDY DURATION: 52 WK), Species: HAMSTER, Strain/Sex: SYRIAN/FEMALE, Target Tissue: Type of Lesion: LIVER: CHOLANGIOCELLULAR ADENOMA, Dose [Carcinogen]: 10 MG/KG BW 1X/WK FOR 3 WK (STUDY DURATION: 52 WK)","6.7%, 0.0%, 100%, not significant"
same,outcome,"Carcinogen: NITROSOBIS(2-OXOPROPYL)AMINE [60599-38-4], Dose [Inhibitor]: 400 PPM IN DIET FOR 4 WK BEGINNING 1 WK PRIOR TO FIRST CARCINOGEN DOSE (STUDY DURATION: 52 WK), Species: HAMSTER, Strain/Sex: SYRIAN/FEMALE, Target Tissue: Type of Lesion: LIVER: CHOLANGIOCELLULAR CARCINOMA, Dose [Carcinogen]: 10 MG/KG BW 1X/WK FOR 3 WK (STUDY DURATION: 52 WK)","0.0%, 7.1%, -100%, not significant"
same,"tumour outcome (control, treated, inhibition, significance)","Carcinogen: NITROSOBIS(2-OXOPROPYL)AMINE [60599-38-4], Dose [Inhibitor]: 400 PPM IN DIET FOR 4 WK BEGINNING 1 WK PRIOR TO FIRST CARCINOGEN DOSE (STUDY DURATION: 52 WK), Species: HAMSTER, Strain/Sex: SYRIAN/FEMALE, Target Tissue: Type of Lesion: LIVER: HEPATOCELLULAR ADENOMA, Dose [Carcinogen]: 10 MG/KG BW 1X/WK FOR 3 WK (STUDY DURATION: 52 WK)","16.7%, 14.3%, 14%, not significant"
same,"tumour outcome (control, treated, inhibition, significance)","Carcinogen: NITROSOBIS(2-OXOPROPYL)AMINE [60599-38-4], Dose [Inhibitor]: 400 PPM IN DIET FOR 4 WK BEGINNING 1 WK PRIOR TO FIRST CARCINOGEN DOSE (STUDY DURATION: 52 WK), Species: HAMSTER, Strain/Sex: SYRIAN/FEMALE, Target Tissue: Type of Lesion: LIVER: HEPATOCELLULAR CARCINOMA, Dose [Carcinogen]: 10 MG/KG BW 1X/WK FOR 3 WK (STUDY DURATION: 52 WK)","6.7%, 7.1%, -6%, not significant"
same,"tumour outcome (control, treated, inhibition, significance)","Carcinogen: NITROSOBIS(2-OXOPROPYL)AMINE [60599-38-4], Dose [Inhibitor]: 400 PPM IN DIET FOR 4 WK BEGINNING 1 WK PRIOR TO FIRST CARCINOGEN DOSE (STUDY DURATION: 52 WK), Species: HAMSTER, Strain/Sex: SYRIAN/FEMALE, Target Tissue: Type of Lesion: LUNG: ADENOCARCINOMA, Dose [Carcinogen]: 10 MG/KG BW 1X/WK FOR 3 WK (STUDY DURATION: 52 WK)","46.7%, 17.2%, 63%, p<0.05"
same,"tumour outcome (control, treated, inhibition, significance)","Carcinogen: NITROSOBIS(2-OXOPROPYL)AMINE [60599-38-4], Dose [Inhibitor]: 400 PPM IN DIET FOR 4 WK BEGINNING 1 WK PRIOR TO FIRST CARCINOGEN DOSE (STUDY DURATION: 52 WK), Species: HAMSTER, Strain/Sex: SYRIAN/FEMALE, Target Tissue: Type of Lesion: LUNG: ADENOMA, Dose [Carcinogen]: 10 MG/KG BW 1X/WK FOR 3 WK (STUDY DURATION: 52 WK)","86.7%,58.6%, 32%, p<0.05"
same,"tumour outcome (control, treated, inhibition, significance)","Carcinogen: NITROSOBIS(2-OXOPROPYL)AMINE [60599-38-4], Dose [Inhibitor]: 400 PPM IN DIET FOR 4 WK BEGINNING 1 WK PRIOR TO FIRST CARCINOGEN DOSE (STUDY DURATION: 52 WK), Species: HAMSTER, Strain/Sex: SYRIAN/FEMALE, Target Tissue: Type of Lesion: PANCREAS: ADENOCARCINOMA, Dose [Carcinogen]: 10 MG/KG BW 1X/WK FOR 3 WK (STUDY DURATION: 52 WK)","13/30 (43.3%), 19/28 (67.9%), -57%, not significant"
same,"tumour outcome (control, treated, inhibition, significance)","Dose [Inhibitor]: 0, 0.075% IN DIET FOR 4 WK BEGINNING 1 WK PRIOR TO CARCINOGEN TREATMENT (STUDY DURATION: 23 MO), Species: RAT, Strain/Sex: F344/MALE, Target Tissue: Type of Lesion: LIVER: ADENOMA, Dose [Carcinogen]: 25 UG IN 0.1 ML TRICAPRYLIN 5 D/WK FOR 2 WK, Promoter: NONE USED","4/45 (9%), 0/46 (0%), 100%, p<0.05"
same,"tumour outcome (control, treated, inhibition, significance)","Dose [Inhibitor]: 0, 0.075% IN DIET FOR 4 WK BEGINNING 1 WK PRIOR TO CARCINOGEN TREATMENT (STUDY DURATION: 23 MO), Species: RAT, Strain/Sex: F344/MALE, Target Tissue: Type of Lesion: LIVER: CARCINOMA, Dose [Carcinogen]: 25 UG IN 0.1 ML TRICAPRYLIN 5 D/WK FOR 2 WK, Promoter: NONE USED","5/45 (11%), 0/46 (0%), 100%, p<0.05"
